“Also recorded” adds a separate entry of the source.
Assays:
HIV-1 Rev protein = experiment: Nuclear export of HIV-1 Rev-GFP in actinomycin D treated HeLa cells; assay type: cell-based; details: 25µM
Description: The HIV-1 Rev protein transports unspliced and incompletely spliced viral RNAs from the nucleus into the cytoplasm (Stauber et al., 1995). As such, Rev's export function is crucial for viral replication and AIDS development (Pavlakis and Stauber, 1998; Stauber et al., 1995).

HTF-8 = experiment: Viability (CellTiter-Glo) and cell death of non-malignant primary fibroblasts HTF-8; assay type: cell-based; details: HTF-8 non-malignant primary human fibroblasts, 100µM, 72h
Method: It was assessed whether the export inhibitors also affect the viability of non-malignant human cells, precluding their potential (pre)clinical use. […] Every 24h cell culture medium was replaced by freshly prepared compound-containing medium. 72h post treatment the cells were analyzed by adding 100µl CellTiter-Glo® assay reagent, and luminescence measured with a LuminoskanAscent (ThermoScientific). Cells treated with DMSO only were used as a control. The fluorescence measured (equals cell viability) with said control was set to 100%.

RevNES-biosensor = RevNES-biosensor translocation (NES-mediated nuclear export) in living HeLa cells, fluorescence microscopy; assay type: cell-based; details: for Cellular localization of green fluorescent RevNES-biosensor: HeLa
Method: The activity of compounds C3, C5 and C24 to inhibit NES-mediated nuclear export in living cells was analyzed as described in Fetz et al., 2009 using living HeLa (cervix carcinoma), FaDu (head and neck cancer), MDA-MB231 (mammacarcinoma) and SW480 cells (colon cancer) which transiently expressed the RevNES-biosensor. The RevNES-biosensor is a fusion protein composed of (from N to C terminus) the SV40 large T-antigen nuclear localization signal (NLS), glutathion-S-transferase (GST), green fluorescent protein (GFP) and the nuclear export signal (NES) of the HIV-1 (human immunodeficiency virus) Rev protein (RevNES).
The cells of the control were treated with a corresponding amount of DMSO only. The cellular localization of RevNES-biosensor was monitored by fluorescence microscopy. […] Maximum of cellular accumulation was observed after 1h (C24), after 2h (C3) and after 5h (C5), respectively. […] Thus, the inhibitory activity of C3 and C24 (reversible) but not of C5 (irreversible) was reversed after 24h. Table 1: Cellular localization of green fluorescent RevNES-biosensor
Table 3: Cellular localization of green fluorescent RevNES-biosensor
(§1) IC50 value corresponds to compound concentration reducing HeLa cell viability by 50%. Topt is the time point post treatment when maximum nuclear export inhibition was observed by fluorescence microscopy. Table 4: Functional characteristics of nuclear export inhibitors

Survivin = experiment: Nuclear export of Survivin-GFP fusion transiently expressed in HeLa cells; assay type: cell-based; details: transient expression, 25µM
Method: The activity of compounds to inhibit the export of the oncologically relevant protein Survivin as well as of the HIV-1 Rev protein was analyzed.
Nuclear export of Survivin is crucial for its tumor promoting cytoprotective activity (Engels et al., 2007; Knauer et al., 2007a; Knauer et al., 2007b).

HeLa cells = experiment: Cell viability (CellTiter-Glo) and cell death, HeLa; assay type: cell-based; details: Homo sapiens; compound concentration reducing HeLa cell viability by 50%
Method: To test the anti-cancer activity of the compounds, several cancer cell lines, currently used as models for different epithelial cancers and leukemias, were treated with the indicated inhibitors. […] Every 24h, the cell culture medium was replaced by fresh compound-containing medium. 72h post treatment, cell were analyzed by adding 100µl CellTiter-Glo® assay reagent (Promega). Luminescence was measured with a LuminoskanAscent device (ThermoScientific). Cells treated with a corresponding amount of DMSO only were use as a control. The luminescence (equals cell viability) of said control was set to 100%.
as §1
It was assessed whether the export inhibitors also affect the viability of non-malignant human cells, precluding their potential (pre)clinical use. 10^3 freshly isolated non-malignant primary human fibroblasts (HTF-8) or HeLa cells/well were seeded and 24h later treated with the indicated compounds (final concentration: 100µM). Every 24h cell culture medium was replaced by freshly prepared compound-containing medium. 72h post treatment the cells were analyzed by adding 100µl CellTiter-Glo® assay reagent, and luminescence measured with a LuminoskanAscent (ThermoScientific). Cells treated with DMSO only were used as a control. The fluorescence measured (equals cell viability) with said control was set to 100%.

human CRM1 (Crm1-HA) = human CRM1 (Crm1-HA) (Homo sapiens, UniProt O14980); experiment: In vitro pull-down of Crm1-HA with GST-SurvivinNES-GFP beads; assay type: binding; details: preincubation 400nM, 30min at 4°C
Method: The binding of LMB and of compounds C3 and C5 to CRM1 was examined by in vitro pull-down assays as described by Stauber et al., 2006. Briefly, in vitro coupled transcription/translation was performed using the TNT reticulocyte lysate system (Promega, Madison, WI, USA) supplemented with methionine (Promega, Madison, WI, USA) and plasmid pCrm1_HA (1µg), encoding a hemagglutinin epitope-tagged version of human CRM1 (Crm1-HA), as the template. Equal amounts of the Crm1-HA TNT reaction were preincubated with either DMSO (negative control; 0.1%), LMB (400nM, final concentration), C3 (1 mM; final concentration) or C5 (1mM; final concentration) in binding-buffer containing 5mM MgCl2 (AppliChem, Darmstadt, Germany), 2mM GTP (PEQLAB, Erlangen, Germany), 50mM Hepes pH 7.9 (AppliChem, Darmstadt, Germany), 200mM KCI (AppliChem, Darmstadt, Germany), 0.4% Tween 20 (AppliChem, Darmstadt, Germany), supplemented with complete protease inhibitor cocktail (Roche, Mannheim, Germany) for 30min at 4°C. Subsequently, GST-Sepharose beads loaded with 25µg recombinant GST-SurvivinNES-GFP and 5µg GST-RanQ96L were added to each drug-treated TNT reaction. Recombinant GST-SurvivinNES-GFP and GST-RanQ96L were purified from bacteria as described by Stauber et al., 2006. Pull-down was performed for 4h at 4°C in a rotating wheel. Samples were then centrifuged (3500rpm, 1min, 4°C) to recover the GST-SurvivinNES-GFP beads with bound Crm1-HA. Beads were washed three times with binding-buffer (500µl each washing step, 3500rpm, 1min, 4°C). Finally, bound proteins were eluted by adding 25µl 2xSDS-sample buffer (250mM Tris-HCl pH 6.8; 2% w/v SDS, 20% glycerol, 2% β-mercaptoethanol, 0.002% w/v bromophenol blue) and incubating at 95°C for 2min. Samples were separated by SDS-gelelectrophoresis and analyzed by immunoblot analysis as described by Stauber et al., 2006. Crm1-HA was detected with HA specific antibodies (MMS-101R, Covance, New Jersey, USA). GFP served as the loading control and was visualized with GFP specific antibodies (sc-8334, Santa Cruz Biotechnology, Heidelberg, Germany).

Chain of human CRM1 (Crm1-HA) (O14980 whole entry): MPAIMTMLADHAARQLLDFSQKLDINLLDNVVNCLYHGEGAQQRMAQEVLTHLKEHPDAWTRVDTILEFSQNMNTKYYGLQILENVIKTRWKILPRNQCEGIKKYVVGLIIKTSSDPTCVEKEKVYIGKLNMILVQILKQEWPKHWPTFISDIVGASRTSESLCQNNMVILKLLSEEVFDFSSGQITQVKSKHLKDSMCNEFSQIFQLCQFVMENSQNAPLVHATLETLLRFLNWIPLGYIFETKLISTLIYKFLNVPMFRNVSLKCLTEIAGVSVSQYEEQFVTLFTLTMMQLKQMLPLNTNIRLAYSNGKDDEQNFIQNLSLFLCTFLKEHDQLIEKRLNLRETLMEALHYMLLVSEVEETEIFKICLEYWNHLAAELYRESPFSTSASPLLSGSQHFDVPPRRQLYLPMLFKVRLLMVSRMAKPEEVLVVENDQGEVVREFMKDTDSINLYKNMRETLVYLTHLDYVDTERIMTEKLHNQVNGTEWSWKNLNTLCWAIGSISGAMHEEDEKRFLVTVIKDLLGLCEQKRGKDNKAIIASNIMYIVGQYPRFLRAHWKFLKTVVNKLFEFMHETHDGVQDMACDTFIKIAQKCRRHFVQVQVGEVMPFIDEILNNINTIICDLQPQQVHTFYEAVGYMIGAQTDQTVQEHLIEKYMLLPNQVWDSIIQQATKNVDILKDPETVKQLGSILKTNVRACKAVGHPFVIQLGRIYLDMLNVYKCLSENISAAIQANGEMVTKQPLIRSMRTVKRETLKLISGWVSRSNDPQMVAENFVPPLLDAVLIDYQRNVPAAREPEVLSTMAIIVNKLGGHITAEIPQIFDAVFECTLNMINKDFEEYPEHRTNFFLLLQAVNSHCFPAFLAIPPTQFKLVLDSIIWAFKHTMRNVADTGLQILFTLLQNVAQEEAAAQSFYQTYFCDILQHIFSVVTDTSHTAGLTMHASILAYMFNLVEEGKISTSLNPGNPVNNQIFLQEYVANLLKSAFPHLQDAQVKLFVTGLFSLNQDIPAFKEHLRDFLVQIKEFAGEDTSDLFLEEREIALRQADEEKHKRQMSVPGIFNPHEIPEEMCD

Structure (SMILES)	Localization of HIV-1 Rev-GFP (nuclear export of HIV-1 Rev protein) (HIV-1 Rev protein)	viability compared to the control (HTF-8)	Cellular localization of green fluorescent RevNES-biosensor (RevNES-biosensor; 25µM, T = 24h)	Cellular localization of green fluorescent RevNES-biosensor (RevNES-biosensor; 25µM, at Topt)	Topt at 25µM (RevNES-biosensor; Table 4, 25µM, fluorescence microscopy)	Mode of Inhibition (RevNES-biosensor; reversal of export inhibition after 24h, C5: 5-12h observation)	Localization of Survivin-GFP fusion (nuclear export of Survivin) (Survivin)	IC50 (HeLa cells) [µM]	interaction of Crm1-HA with the export substrate GST-SurvivinNES-GFP (human CRM1 (Crm1-HA))
NC(=O)c1c(NC(NC(=O)c2cccc(F)c2)(C(F)(F)F)C(F)(F)F)sc2c1CCC2 [Compound C24, 2-[[1,1,1,3,3,3-hexafluoro-2-[(3-fluorobenzoyl)amino]propan-2-yl]amino]-5,6-dihydro-4H-cyclopenta[b]thiophene-3-carboxamide]	restored the nuclear accumulation	do not affect viability	predominantly localized in the cytoplasm	nuclear accumulation; also recorded: nucleus	∼1h	reversible	accumulated in the nucleus	31	–
CCC(=C/[C@H](C)C/C=C/C(C)=C/[C@@H](C)C(=O)[C@@H](C)[C@H](O)[C@@H](C)C/C(C)=C/C(=O)O)/C=C/[C@@H]1OC(=O)C=C[C@@H]1C [LMB, leptomycin B, reference compound]	–	–	–	–	–	–	–	–	prevented the interaction

Reference: patent EP2616456B1, “NUCLEAR EXPORT INHIBITORS” (Universitätsmedizin der Johannes Gutenberg-Universität Mainz, priority 2010, dated 2012)
